± gives the expanded uncertainty stated by the source.
Assay: xn = mol fraction of the nth substance listed
Conditions: Ring tensiometer

CCCCCO [pentan-1-ol] + OCCO
surface tension liquid-gas [mN/m]
Conditions	298.15 K	303.15 K	308.15 K	313.15 K	318.15 K
x1 = 0.0488	35.01 ± 0.52	34.4 ± 0.51	33.65 ± 0.5	33.18 ± 0.5	32.85 ± 0.49
x1 = 0.0931	32.1 ± 0.49	30.89 ± 0.47	30.71 ± 0.47	30.51 ± 0.47	30.37 ± 0.47
x1 = 0.1523	29.93 ± 0.46	29.14 ± 0.45	29.25 ± 0.45	29.05 ± 0.45	28.87 ± 0.45
x1 = 0.2043	29.26 ± 0.46	28.56 ± 0.45	28.41 ± 0.45	28.27 ± 0.44	28.09 ± 0.44
x1 = 0.2502	28.35 ± 0.45	27.94 ± 0.44	27.81 ± 0.44	27.67 ± 0.44	27.51 ± 0.44
x1 = 0.2912	28.04 ± 0.44	27.65 ± 0.44	27.51 ± 0.44	27.35 ± 0.43	27.17 ± 0.43
x1 = 0.3503	27.01 ± 0.43	27.05 ± 0.43	26.91 ± 0.43	26.8 ± 0.43	26.68 ± 0.43
x1 = 0.4094	27.39 ± 0.44	26.62 ± 0.43	26.48 ± 0.43	26.31 ± 0.42	26.18 ± 0.42
x1 = 0.4586	26.71 ± 0.43	26.19 ± 0.42	25.98 ± 0.42	25.82 ± 0.42	25.69 ± 0.42
x1 = 0.5003	26.75 ± 0.43	25.77 ± 0.42	25.61 ± 0.42	25.43 ± 0.41	25.27 ± 0.41
x1 = 0.552	26.53 ± 0.43	25.39 ± 0.42	25.21 ± 0.41	25.02 ± 0.41	24.91 ± 0.41
x1 = 0.5982	25.71 ± 0.42	25.15 ± 0.41	24.98 ± 0.41	24.81 ± 0.41	24.68 ± 0.41
x1 = 0.6425	26.32 ± 0.43	24.96 ± 0.41	24.79 ± 0.41	24.67 ± 0.41	24.53 ± 0.41
x1 = 0.6979	26.21 ± 0.43	24.75 ± 0.41	24.57 ± 0.41	24.41 ± 0.4	24.25 ± 0.4
x1 = 0.7197	26.12 ± 0.43	24.63 ± 0.41	24.51 ± 0.41	24.37 ± 0.4	24.19 ± 0.4
x1 = 0.7739	25.98 ± 0.42	24.35 ± 0.41	24.18 ± 0.4	23.98 ± 0.4	23.82 ± 0.4
x1 = 0.837	24.89 ± 0.41	24.23 ± 0.4	24.15 ± 0.4	23.92 ± 0.4	23.78 ± 0.4
x1 = 0.9113	25.45 ± 0.42	24.13 ± 0.4	24 ± 0.4	23.81 ± 0.4	23.65 ± 0.4
x1 = 0.9536	25.25 ± 0.42	24.02 ± 0.4	23.89 ± 0.4	23.75 ± 0.4	23.61 ± 0.4

CCCCCCCO [heptan-1-ol] + OCCO
surface tension liquid-gas [mN/m]
Conditions	298.15 K	303.15 K	308.15 K	313.15 K	318.15 K
x1 = 0.0559	29.24 ± 0.45	29.16 ± 0.45	28.96 ± 0.45	28.78 ± 0.45	28.64 ± 0.45
x1 = 0.1059	27.73 ± 0.44	28.02 ± 0.44	27.88 ± 0.44	27.71 ± 0.44	27.55 ± 0.44
x1 = 0.1508	27.18 ± 0.43	27.66 ± 0.44	27.55 ± 0.44	27.42 ± 0.44	27.28 ± 0.43
x1 = 0.1914	27.05 ± 0.43	27.54 ± 0.44	27.21 ± 0.43	27.06 ± 0.43	26.91 ± 0.43
x1 = 0.2512	26.93 ± 0.43	27.36 ± 0.43	26.98 ± 0.43	26.81 ± 0.43	26.67 ± 0.43
x1 = 0.3027	26.78 ± 0.43	27.2 ± 0.43	26.84 ± 0.43	26.71 ± 0.43	26.57 ± 0.43
x1 = 0.3559	26.67 ± 0.43	27.07 ± 0.43	26.69 ± 0.43	26.53 ± 0.43	26.35 ± 0.42
x1 = 0.4085	26.57 ± 0.43	26.89 ± 0.43	26.65 ± 0.43	26.42 ± 0.43	26.28 ± 0.42
x1 = 0.4532	26.41 ± 0.43	26.77 ± 0.43	26.57 ± 0.43	26.32 ± 0.42	26.16 ± 0.42
x1 = 0.4966	26.32 ± 0.42	26.67 ± 0.43	26.42 ± 0.43	26.23 ± 0.42	26.07 ± 0.42
x1 = 0.5502	26.25 ± 0.42	26.6 ± 0.43	26.24 ± 0.42	26.07 ± 0.42	25.91 ± 0.42
x1 = 0.5999	26.17 ± 0.42	26.48 ± 0.43	26.12 ± 0.42	25.92 ± 0.42	25.78 ± 0.42
x1 = 0.6369	26 ± 0.42	26.39 ± 0.42	26.09 ± 0.42	25.83 ± 0.42	25.65 ± 0.42
x1 = 0.6928	26.08 ± 0.42	26.31 ± 0.42	26.01 ± 0.42	25.68 ± 0.42	25.52 ± 0.42
x1 = 0.7246	26.01 ± 0.42	26.25 ± 0.42	25.91 ± 0.42	25.62 ± 0.42	25.48 ± 0.42
x1 = 0.7978	25.92 ± 0.42	26.18 ± 0.42	25.85 ± 0.42	25.52 ± 0.42	25.37 ± 0.41
x1 = 0.8403	25.83 ± 0.42	26.12 ± 0.42	25.78 ± 0.42	25.51 ± 0.42	25.31 ± 0.41
x1 = 0.8875	25.71 ± 0.42	26.07 ± 0.42	25.68 ± 0.42	25.45 ± 0.42	25.21 ± 0.41
x1 = 0.9404	25.62 ± 0.42	26.02 ± 0.42	25.62 ± 0.42	25.45 ± 0.42	25.14 ± 0.41

Source: the NIST ThermoML archive (doi:10.1021/je800101v)
